Earlier results, collected in publication PMC11232374, “Safety, tolerability, and pharmacokinetics of HRS9432(A) injection in healthy Chinese subjects: a phase-I randomized, double-blind, dose escalation, placebo-controlled study” (Antimicrobial Agents and Chemotherapy, 2024).

Settings: after a single intravenous dose
Source text: Echinocandin-class antifungal drugs currently available on the market include caspofungin, micafungin, and anidulafungin. The chemical structures of these drugs contribute to their relatively short half-life, necessitating daily administration in clinical practice ([3]). Rezafungin is a long-acting echinocandin antifungal drug, based on the structure of anidulafungin to enhance metabolic stability. […] The results of its Pha ...

## Rezafungin
  elimination half-life: 150 h
